Assay results reported in publication PMC6941952, “A homogeneous bioluminescent immunoassay to probe cellular signaling pathway regulation” (Communications Biology, 2020).

Tested on: phospho-IκBα (Ser32)
Test: NanoBiT cell-based immunoassay, phosphorylated IκBα in MCF-7 cells
Design: species or system human
Conditions: for Raw data / Subtract reagent background: TNF
Experimental: Prior to NanoBiT Cell-Based Immunoassay, 50,000 cells were seeded in 160 µl of complete growth media per well of a 96-well plate and incubated overnight. The cells were checked under microscope and it was determined that 50,000 cells per well in 96-well plate is under 90% confluency for all cells tested. If necessary, the cell culture media were replaced with serum-free media after the cells were stably adherent on the plate and incubated overnight. To treat cells with activators or inhibitors, medium was changed to 30 µl of medium containing inhibitors. If activation of a specific pathway is needed, the cells were stimulated with 10 µl of medium containing activators. To lyse the cells, 10 µl of lysis buffer containing 0.1% digitonin diluted in 1X immunoassay buffer with protease and phosphatase inhibitors was added and the plates were mixed vigorously for 20 min. Then, 50 µl of an antibody mix containing two primary antibodies against the target protein and NanoBiT detecting antibodies (0.3 µl each per well), diluted in 1X immunoassay buffer was added to the lysates. The plates were incubated at 23 °C for 90 min, followed by the addition of 25 µl of Nano-Glo® reagent consisting of Nano-Glo® Luciferase Assay Substrate mixed with 1X immunoassay buffer. Luminescence was measured using a plate-reading luminometer.
In all, 50,000 MCF-7 cells were seeded in 160 µl complete growth medium per well of a 96-well plate and incubated overnight. Half of the cells were treated with 50 ng per ml TNFα and half with vehicle. Cells were lysed as described above and a mixture of NanoBiT secondary antibodies with primary antibodies at the matrix concentrations described in Fig. 2a were added. After 90 min incubation, the Nano-Glo® reagent was added to the reactions as described above and luminescence was measured using a plate-reading luminometer.
Single dose or dose response inhibitor treatments were performed prior to activation of the pathways as follows. For IκBα, the cells were treated in 30 µl medium with IKK16 or MG132 for 60 min before the addition of 10 µl of DMEM containing appropriate concentration of TNFα. To measure phosphorylation of AKT or STAT3, the corresponding NanoBiT immunoassays were developed with MCF-7 or A431 cells, respectively, according the same scheme used to develop the IκBα assay using the primary antibodies for AKT and STAT3 described in the reagents section. For the AKT assay, MCF-7 cells were incubated overnight in phenol-red free DMEM medium (Gibco #21063-029) without serum. Treatment with LY294002 was performed in 30 µl medium and cells were incubated for 60 min before the addition of 1 µM Insulin. To measure STAT3 phosphorylation, A431 cells were incubated overnight in DMEM medium without serum. […] After addition of the stimulators, the cells were incubated for additional times as follows. IκBα phosphorylation and degradation analyses required both time courses and single time points as described in figures. […] The NanoBiT immunoassay protocol was followed as described above.
All 96-well assay plates were read using a GloMax® 96 Microplate Luminometer from Promega. The instrument was set to 0.5 s integration time. In order to obtain net change of signal, the reagent background values (signal from the well containing all reagent except primary antibodies) were subtracted from the sample values. To plot and analyze the data, Microsoft Excel and GraphPad Prism® Software were used. IC50 values were determined by using a nonlinear regression fit to a sigmoidal dose response (variable slope).

[1] = plate #1, IkB Ab #1 75 ng/ml, P-IkB Ab #1 150 ng/ml
[2] = plate #1, IkB Ab #1 75 ng/ml, P-IkB Ab #1 300 ng/ml
[3] = plate #1, IkB Ab #1 75 ng/ml, P-IkB Ab #1 600 ng/ml
[4] = plate #1, IkB Ab #1 75 ng/ml, P-IkB Ab #1 1200 ng/ml
[5] = plate #1, IkB Ab #1 150 ng/ml, P-IkB Ab #1 75 ng/ml
[6] = plate #1, IkB Ab #1 150 ng/ml, P-IkB Ab #1 150 ng/ml
[7] = plate #1, IkB Ab #1 150 ng/ml, P-IkB Ab #1 300 ng/ml
[8] = plate #1, IkB Ab #1 150 ng/ml, P-IkB Ab #1 600 ng/ml
[9] = plate #1, IkB Ab #1 150 ng/ml, P-IkB Ab #1 1200 ng/ml
[10] = plate #1, IkB Ab #1 300 ng/ml, P-IkB Ab #1 75 ng/ml
[11] = plate #1, IkB Ab #1 300 ng/ml, P-IkB Ab #1 150 ng/ml
[12] = plate #1, IkB Ab #1 300 ng/ml, P-IkB Ab #1 300 ng/ml
[13] = plate #1, IkB Ab #1 300 ng/ml, P-IkB Ab #1 600 ng/ml
[14] = plate #1, IkB Ab #1 300 ng/ml, P-IkB Ab #1 1200 ng/ml
[15] = plate #1, IkB Ab #1 600 ng/ml, P-IkB Ab #1 75 ng/ml
[16] = plate #1, IkB Ab #1 600 ng/ml, P-IkB Ab #1 150 ng/ml
[17] = plate #1, IkB Ab #1 600 ng/ml, P-IkB Ab #1 300 ng/ml
[18] = plate #1, IkB Ab #1 600 ng/ml, P-IkB Ab #1 600 ng/ml
[19] = plate #1, IkB Ab #1 600 ng/ml, P-IkB Ab #1 1200 ng/ml
[20] = plate #1, IkB Ab #1 1200 ng/ml, P-IkB Ab #1 75 ng/ml
[21] = plate #1, IkB Ab #1 1200 ng/ml, P-IkB Ab #1 150 ng/ml
[22] = plate #1, IkB Ab #1 1200 ng/ml, P-IkB Ab #1 300 ng/ml
[23] = plate #1, IkB Ab #1 1200 ng/ml, P-IkB Ab #1 600 ng/ml
[24] = plate #1, IkB Ab #1 1200 ng/ml, P-IkB Ab #1 1200 ng/ml
[25] = plate #2, IkB Ab #2 75 ng/ml, P-IkB Ab #1 75 ng/ml

## TNFα
[1]
  Raw data: 38800
  Subtract reagent background: 19890
[2]
  Raw data: 36190
  Subtract reagent background: 17280
[3]
  Raw data: 29500
  Subtract reagent background: 10590
[4]
  Raw data: 23430
  Subtract reagent background: 4520
[5]
  Raw data: 31770
  Subtract reagent background: 12860
[6]
  Raw data: 37260
  Subtract reagent background: 18350
[7]
  Raw data: 34880
  Subtract reagent background: 15970
[8]
  Raw data: 27610
  Subtract reagent background: 8700
[9]
  Raw data: 22810
  Subtract reagent background: 3900
[10]
  Raw data: 28900
  Subtract reagent background: 9990
[11]
  Raw data: 32520
  Subtract reagent background: 13610
[12]
  Raw data: 32030
  Subtract reagent background: 13120
[13]
  Raw data: 24980
  Subtract reagent background: 6070
[14]
  Raw data: 21690
  Subtract reagent background: 2780
[15]
  Raw data: 24730
  Subtract reagent background: 5820
[16]
  Raw data: 27710
  Subtract reagent background: 8800
[17]
  Raw data: 26820
  Subtract reagent background: 7910
[18]
  Raw data: 24690
  Subtract reagent background: 5780
[19]
  Raw data: 22170
  Subtract reagent background: 3260
[20]
  Raw data: 22890
  Subtract reagent background: 3980
[21]
  Raw data: 24970
  Subtract reagent background: 6060
[22]
  Raw data: 24110
  Subtract reagent background: 5200
[23]
  Raw data: 24380
  Subtract reagent background: 5470
[24]
  Raw data: 22870
  Subtract reagent background: 3960
Plate #1, IkB Ab #1 (Mouse) 75 ng/ml, P-IkB Ab #1 (Rabbit) 150 ng/ml
  Fold change (TNF-treated /Non-treated): 8.219
Plate #1, IkB Ab #1 (Mouse) 75 ng/ml, P-IkB Ab #1 (Rabbit) 150 ng/ml, listed as TNF
  Fold change (TNF-treated /Non-treated): 8.2
Plate #1, IkB Ab #1 (Mouse) 75 ng/ml, P-IkB Ab #1 (Rabbit) 300 ng/ml
  Fold change (TNF-treated /Non-treated): 4.364
Plate #1, IkB Ab #1 (Mouse) 75 ng/ml, P-IkB Ab #1 (Rabbit) 300 ng/ml, listed as TNF
  Fold change (TNF-treated /Non-treated): 4.4
Plate #1, IkB Ab #1 (Mouse) 75 ng/ml, P-IkB Ab #1 (Rabbit) 600 ng/ml
  Fold change (TNF-treated /Non-treated): 2.688
Plate #1, IkB Ab #1 (Mouse) 75 ng/ml, P-IkB Ab #1 (Rabbit) 600 ng/ml, listed as TNF
  Fold change (TNF-treated /Non-treated): 2.7
Plate #1, IkB Ab #1 (Mouse) 75 ng/ml, P-IkB Ab #1 (Rabbit) 1200 ng/ml
  Fold change (TNF-treated /Non-treated): 1.8374
Plate #1, IkB Ab #1 (Mouse) 75 ng/ml, P-IkB Ab #1 (Rabbit) 1200 ng/ml, listed as TNF
  Fold change (TNF-treated /Non-treated): 1.8
Plate #1, IkB Ab #1 (Mouse) 150 ng/ml, P-IkB Ab #1 (Rabbit) 150 ng/ml
  Fold change (TNF-treated /Non-treated): 9.557
Plate #1, IkB Ab #1 (Mouse) 150 ng/ml, P-IkB Ab #1 (Rabbit) 150 ng/ml, listed as TNF
  Fold change (TNF-treated /Non-treated): 9.6
Plate #1, IkB Ab #1 (Mouse) 150 ng/ml, P-IkB Ab #1 (Rabbit) 300 ng/ml
  Fold change (TNF-treated /Non-treated): 4.656
Plate #1, IkB Ab #1 (Mouse) 150 ng/ml, P-IkB Ab #1 (Rabbit) 300 ng/ml, listed as TNF
  Fold change (TNF-treated /Non-treated): 4.7
Plate #1, IkB Ab #1 (Mouse) 150 ng/ml, P-IkB Ab #1 (Rabbit) 600 ng/ml
  Fold change (TNF-treated /Non-treated): 2.797
Plate #1, IkB Ab #1 (Mouse) 150 ng/ml, P-IkB Ab #1 (Rabbit) 600 ng/ml, listed as TNF
  Fold change (TNF-treated /Non-treated): 2.8
Plate #1, IkB Ab #1 (Mouse) 150 ng/ml, P-IkB Ab #1 (Rabbit) 1200 ng/ml
  Fold change (TNF-treated /Non-treated): 0.8904
Plate #1, IkB Ab #1 (Mouse) 150 ng/ml, P-IkB Ab #1 (Rabbit) 1200 ng/ml, listed as TNF
  Fold change (TNF-treated /Non-treated): 0.9
Plate #1, IkB Ab #1 (Mouse) 300 ng/ml, P-IkB Ab #1 (Rabbit) 150 ng/ml, listed as TNF
  Fold change (TNF-treated /Non-treated): 4.1
Plate #1, IkB Ab #1 (Mouse) 300 ng/ml, P-IkB Ab #1 (Rabbit) 300 ng/ml, listed as TNF
  Fold change (TNF-treated /Non-treated): 3.3
Plate #1, IkB Ab #1 (Mouse) 300 ng/ml, P-IkB Ab #1 (Rabbit) 600 ng/ml, listed as TNF
  Fold change (TNF-treated /Non-treated): 1.6
Plate #1, IkB Ab #1 (Mouse) 300 ng/ml, P-IkB Ab #1 (Rabbit) 1200 ng/ml, listed as TNF
  Fold change (TNF-treated /Non-treated): 1.0
Plate #1, IkB Ab #1 (Mouse) 600 ng/ml, P-IkB Ab #1 (Rabbit) 75 ng/ml, listed as TNF
  Fold change (TNF-treated /Non-treated): 4.9
Plate #1, IkB Ab #1 (Mouse) 600 ng/ml, P-IkB Ab #1 (Rabbit) 150 ng/ml, listed as TNF
  Fold change (TNF-treated /Non-treated): 5.1
Plate #1, IkB Ab #1 (Mouse) 600 ng/ml, P-IkB Ab #1 (Rabbit) 300 ng/ml, listed as TNF
  Fold change (TNF-treated /Non-treated): 3.0
Plate #1, IkB Ab #1 (Mouse) 600 ng/ml, P-IkB Ab #1 (Rabbit) 600 ng/ml, listed as TNF
  Fold change (TNF-treated /Non-treated): 2.3
Plate #1, IkB Ab #1 (Mouse) 600 ng/ml, P-IkB Ab #1 (Rabbit) 1200 ng/ml, listed as TNF
  Fold change (TNF-treated /Non-treated): 1.1
Plate #1, IkB Ab #1 (Mouse) 1200 ng/ml, P-IkB Ab #1 (Rabbit) 75 ng/ml, listed as TNF
  Fold change (TNF-treated /Non-treated): 2.5
Plate #1, IkB Ab #1 (Mouse) 1200 ng/ml, P-IkB Ab #1 (Rabbit) 150 ng/ml, listed as TNF
  Fold change (TNF-treated /Non-treated): 3.0
Plate #1, IkB Ab #1 (Mouse) 1200 ng/ml, P-IkB Ab #1 (Rabbit) 300 ng/ml, listed as TNF
  Fold change (TNF-treated /Non-treated): 1.9
Plate #1, IkB Ab #1 (Mouse) 1200 ng/ml, P-IkB Ab #1 (Rabbit) 600 ng/ml, listed as TNF
  Fold change (TNF-treated /Non-treated): 2.0
Plate #1, IkB Ab #1 (Mouse) 1200 ng/ml, P-IkB Ab #1 (Rabbit) 1200 ng/ml, listed as TNF
  Fold change (TNF-treated /Non-treated): 1.8
[25]
  Raw data: 20520
  Subtract reagent background: 2000
Plate #2, IkB Ab #2 75 ng/ml, P-IkB Ab #1 150 ng/ml
  Raw data: 20690
